pIC50, pKi: −log10 of the molar value. Converted amounts (≈) assume the structure as drawn. The source made the active and inactive calls. The rule behind the calls is not given here.
Experiments:
[1] = molecular target: T1, Deubiquitinase and deneddylase Dub1 (Chlamydia trachomatis serovar L2 (strain ATCC VR-902B / DSM 19102 /434/Bu), UniProt B0B9A0); assay: Inhibition of recombinant Chlamydia trachomatis DUB1 (130 to 401 residues) using Ub-Rh110Gly as fluorogenic substrate incubated for 60 mins by enzymatic analysis; conditions: for pIC50: read-out: IC50
T1 sequence (B0B9A0 whole entry): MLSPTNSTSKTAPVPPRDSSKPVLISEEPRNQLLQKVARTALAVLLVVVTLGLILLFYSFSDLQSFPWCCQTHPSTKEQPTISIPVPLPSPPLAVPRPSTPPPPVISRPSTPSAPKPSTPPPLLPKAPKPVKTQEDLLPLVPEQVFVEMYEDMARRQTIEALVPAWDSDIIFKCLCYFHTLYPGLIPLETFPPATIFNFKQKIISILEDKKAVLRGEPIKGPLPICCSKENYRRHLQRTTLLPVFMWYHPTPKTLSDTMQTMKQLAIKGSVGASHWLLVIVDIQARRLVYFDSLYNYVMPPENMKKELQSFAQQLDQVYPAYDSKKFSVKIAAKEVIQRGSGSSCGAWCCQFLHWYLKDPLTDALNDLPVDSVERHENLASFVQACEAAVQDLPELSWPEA

[2] = molecular target: T1, Deubiquitinase and deneddylase Dub1; assay: Inhibition of recombinant Chlamydia trachomatis DUB1 (130 to 401 residues) using Ub-Rh110Gly as fluorogenic substrate incubated for 360 mins by enzymatic analysis
[3] = molecular target: T2, Deubiquitinase and deneddylase Dub1 (Chlamydia trachomatis serovar L2 (strain ATCC VR-902B / DSM 19102 /434/Bu)) (UniProt B0B9A0); assay: Binding affinity to recombinant Chlamydia trachomatis DUB1 (130 to 401 residues) assessed as inactivation rate constant (Kinact) using Ub-Rh110Gly as fluorogenic substrate incubated for 360 mins by Michaelis-Menten analysis
T2 sequence (whole entry): T1 sequence (B0B9A0 whole entry)

[4] = molecular target: T2, Deubiquitinase and deneddylase Dub1 (Chlamydia trachomatis serovar L2 (strain ATCC VR-902B / DSM 19102 /434/Bu)); assay: Binding affinity to recombinant Chlamydia trachomatis DUB1 (130 to 401 residues) assessed as Kinact/Ki ratio using Ub-Rh110Gly as fluorogenic substrate incubated for 360 mins by Michaelis-Menten analysis
[5] = molecular target: T1, Deubiquitinase and deneddylase Dub1; assay: Binding affinity to recombinant Chlamydia trachomatis DUB1 (130 to 401 residues) assessed as inhibition constant using Ub-Rh110Gly as fluorogenic substrate incubated for 360 mins by Michaelis-Menten analysis
[6] = molecular target: T2, Deubiquitinase and deneddylase Dub1 (Chlamydia trachomatis serovar L2 (strain ATCC VR-902B / DSM 19102 /434/Bu)); assay: Inhibition of recombinant Chlamydia trachomatis DUB1 (130 to 401 residues) using Ub-Rh110Gly as fluorogenic substrate at highest concentration incubated for 60 to 360 mins by enzymatic analysis; conditions: time 60-360 min
[7] = molecular target: T2, Deubiquitinase and deneddylase Dub1 (Chlamydia trachomatis serovar L2 (strain ATCC VR-902B / DSM 19102 /434/Bu)); assay: Non-covalent inhibition of recombinant Chlamydia trachomatis DUB1 (130 to 401 residues) using Ub-Rh110Gly as fluorogenic substrate incubated for 10 to 360 mins by enzymatic analysis; conditions: time 10-360 min
Chlamydia trachomatis = assay: Anti-chlamydial activity against Chlamydia trachomatis serovar L2 infected in human HEp-2 cells assessed as inhibition of chlamydial inclusion incubated for 16 hrs by Alexa488/DAPI staining based immunofluorescence assay; type: functional, organism-based; conditions: serovar L2, HEp-2, 16 h
HeLa = assay: Cytotoxicity against human HeLa cells assessed as cell viability at 4 to 256 ug/mL measured after 20 hrs by XTT assay; type: toxicity, cell-based; conditions: dose 4-256 µg/ml
HEp-2 = assay: Cytotoxicity against human HEp-2 cells assessed as reduction in cell viability at 4 to 256 ug/mL measured after 20 hrs by XTT assay; type: toxicity, cell-based; conditions: hep-2, 20 h, dose 4-256 µg/ml
[8] = molecular target: T1, Deubiquitinase and deneddylase Dub1; assay: Inhibition of recombinant Chlamydia trachomatis DUB1 (130 to 401 residues) using Ub-Rh110Gly as fluorogenic substrate incubated for 20 mins by enzymatic analysis
[9] = molecular target: T1, Deubiquitinase and deneddylase Dub1; assay: Inhibition of recombinant Chlamydia trachomatis DUB1 (130 to 401 residues) using Ub-Rh110Gly as fluorogenic substrate incubated for 2 mins by enzymatic analysis
[10] = molecular target: T2, Deubiquitinase and deneddylase Dub1 (Chlamydia trachomatis serovar L2 (strain ATCC VR-902B / DSM 19102 /434/Bu)); assay: Inhibition of recombinant Chlamydia trachomatis DUB1 (130 to 401 residues) using Ub-Rh110Gly as fluorogenic substrate at 100 to 500 uM incubated for 20 to 240 mins by enzymatic analysis relative to control; conditions: dose 100-500 µM, time 20-240 min
[11] = molecular target: T2, Deubiquitinase and deneddylase Dub1 (Chlamydia trachomatis serovar L2 (strain ATCC VR-902B / DSM 19102 /434/Bu)); assay: Covalent inhibition of recombinant Chlamydia trachomatis DUB1 (130 to 401 residues) using Ub-Rh110Gly as fluorogenic substrate incubated for 10 to 360 mins by enzymatic analysis; conditions: time 10-360 min
[12] = molecular target: T2, Deubiquitinase and deneddylase Dub1 (Chlamydia trachomatis serovar L2 (strain ATCC VR-902B / DSM 19102 /434/Bu)); assay: Inhibition of recombinant Chlamydia trachomatis DUB1 (130 to 401 residues) using Ub-Rh110Gly as fluorogenic substrate incubated for 60 mins by enzymatic analysis relative to control

SMILES | pIC50 [1] | other results
N#Cc1nccc(NC(=O)Cc2c[nH]c3ccccc23)n1 | 3.76 | 
N#Cc1ncc(C(=O)N2CCc3cc(C(=O)NCc4ccccc4)ccc3C2)cn1 | 4.11 | 
N#Cc1nccc(C(=O)NCc2c[nH]c3ccccc23)n1 | 5.21 | pIC50 [2]: 5.77; Kinact [3]: 0.422 min⁻¹; Ratio [4]: 22.4 M⁻¹ s⁻¹; pKi [5]: 3.50
COc1ccccc1CNC(=O)[C@H]1CC[C@H](CNC(=O)c2cnc(C#N)nc2)CC1 | 3.91 | 
N#Cc1nccc(C(=O)NCc2c[nH]c3cccc(OCc4ccccc4)c23)n1 | 3.74 | 
N#Cc1nccc(C(=O)Nc2cc[nH]n2)n1 | 4.64 | 
N#Cc1nccc(C(=O)NCc2c[nH]c3cc(OCc4ccccc4)ccc23)n1 | 4.82 | 
N#Cc1nccc(C(=O)NCc2c[nH]c3c(OCc4ccccc4)cccc23)n1 | 3.74 | 
COc1ccc2[nH]cc(CNC(=O)c3ccnc(C#N)n3)c2c1 | 5.24 | 
N#Cc1ncc(NC(=O)Cc2c[nH]c3ccccc23)cn1 | 4.03 | 
N#Cc1ncc(C(=O)NCc2cccc(C(=O)NCc3ccccc3)c2)cn1 | 4.66 | 
N#Cc1ncc(C(=O)NCc2ccc(C(=O)NCc3ccccc3)c3ccccc23)cn1 | 5.00 | inhibition [6]: Active; Complete Inhibition Was Not Achieved; inhibition [7]: Active
N#Cc1nc(C(=O)NCc2c[nH]c3ccccc23)co1 |  | IC50 (Chlamydia trachomatis): 32.2 µg/mL (≈ 121 µM); Activity (HeLa): Toxic; Activity (HEp-2): Toxic; pIC50 [8]: 5.51; pKi [5]: 3.93; pIC50 [9]: 4.80
N#Cc1nccc(C(=O)NCc2ccn(C(=O)Cc3ccccc3)n2)n1 | 4.64 | inhibition [10]: 100%; inhibition [11]: Active
Cn1cc(CNC(=O)c2ccnc(C#N)n2)c2ccccc21 | 4.82 | 
N#Cc1nccc(C(=O)NCc2n[nH]c3ccccc23)n1 | 4.72 | inhibition [12]: 100%
COc1ccc2c(CNC(=O)c3ccnc(C#N)n3)c[nH]c2c1 | 5.12 | 
Cn1ccc(NC(=O)c2ccnc(C#N)n2)n1 | 4.33 | IC50 ([1]; read-out: pIC50 (converted)): 45.7 µM
N#Cc1nccc(C(=O)NCCc2c[nH]c3ccccc23)n1 | 4.64 | 
N#Cc1nccc(C(=O)NCc2c[nH]c3ccc(OCc4ccccc4)cc23)n1 | 5.54 | Activity (HeLa): Non-toxic; Activity (HEp-2): Toxic; inhibition [12]: 100%
N#Cc1ncc(C(=O)NCc2ccc(C(=O)NCc3ccccc3)cc2)cn1 | 4.57 | inhibition [11]: Active
N#Cc1nccc(C(=O)Nc2n[nH]c3ccccc23)n1 | 4.64 | inhibition [12]: 100%
